42 compounds from patent publication US9714243B2, “4-pyridinonetriazine derivatives as HIV integrase inhibitors” (Merck Sharp & Dohme Corp., priority 2012, dated 2017) can be followed below.

The subject of the assay is HIV-1 (NL4-3 strain). The assay can be described thus: Assay for inhibition of HIV replication (ViKinG; infected MT4-GFP cells). The assay is classed as cell-based. Here is the method:
Assay for inhibition of HIV replication
MT4-GFP cells (250,000 cells/ml) were bulk-infected with HIV-1 (NL4-3 strain) at low multiplicity of infection (MOI) in RPMI+10% FBS for 24 hours. […] Test compounds were serial-diluted in DMSO on ECHO. The infected MT4-GFP cells were added to a 384-well poly-D-lysine coated black plate with clear bottom in which the diluted test compounds were placed. The cells were seeded at 8,000 cells per well and the final DMSO concentration was 0.4%. The infected cells (Green GFP cells) were quantified at both 24 and 48 hours post incubation using Acumen eX3. Viral reproductive ratio (R0) was determined using the number of infected cells at 48 hours divided by the number of infected cells at 24 hours. Percent viral growth inhibition was calculated by [1−(R−Rtripledrug)/(RDMSO−Rtripledrug)]*100. Compound potency IP or IC50 was determined by a 4-parameter dose response curve analysis.

Where [1] appears, read: Human immunodeficiency virus 1, NL43, MT4-GFP cells infected with HIV-1 NL4-3, 10% normal human serum (NHS), read-out: ViKinG IP (nM) with 10% NHS.
Setting [2] is: Human immunodeficiency virus 1, NL43, MT4-GFP cells infected with HIV-1 NL4-3, 100% normal human serum (NHS), read-out: ViKinG IP (nM) with 100% NHS.
Setting [3] is: Human immunodeficiency virus 1, NL43, MT4-GFP cells infected with HIV-1 NL4-3, 0% normal human serum (NHS), read-out: ViKinG IP (nM) with 0% NHS.
The mark [4] stands for this setting: MT4-GFP cells infected with HIV-1 NL4-3, 0% normal human serum (NHS), read-out: ViKinG IP (nM) with 0% NHS.
[5] abbreviates: MT4-GFP cells infected with HIV-1 NL4-3, 10% normal human serum (NHS), read-out: ViKinG IP (nM) with 10% NHS.
Setting [6] is: MT4-GFP cells infected with HIV-1 NL4-3, 100% normal human serum (NHS), read-out: ViKinG IP (nM) with 100% NHS.

The structures appear in SMILES notation. Like-named read-outs stand apart in the source and are kept apart here.

As to `CN1C2CCCCN2C(=O)c2c(O)c(=O)c(-c3nnc(Cc4ccc(F)cc4F)s3)cn21` (centres unmarked) [Compound 157], the IC50 under setting [1] came to 14.2 nM and the IC50 under setting [2] is 613 nM.

With `CCN1C(=O)c2c(O)c(=O)c(-c3nnc(Cc4ccc(F)cc4)s3)cn2N(C)C1(C)C` [Compound 5], the IC50 is, setting by setting: under setting [1], 31 nM; under setting [2], 936 nM.

As to `CCN1C(=O)c2c(O)c(=O)c(-c3cn(Cc4ccc(F)cc4F)nn3)cn2CC12CCC2` [Compound 216], the IC50 stood at 13.2 nM under setting [3] and 332 nM under setting [2].

In the case of `COC(=O)[C@@]12C[C@@H]1CCC21N(C)C(=O)c2c(O)c(=O)c(-c3nnc(Cc4ccc(F)cc4F)s3)cn2N1C` (mixture of isomers) [Compound 199], the IC50 is, setting by setting: under setting [3], 5.42 nM; under setting [1], 13.9 nM; under setting [2], 202 nM.

For the compound `CN1C(=O)c2c(O)c(=O)c(-c3nnc(Cc4ccc(F)cc4F)s3)cn2N(C)C12CCC(C(=O)NCC(F)(F)F)CC2` (centres unmarked) [Compound 111], the IC50 runs as follows: under setting [4], 26.6 nM; under setting [5], 193 nM.

Take `CN(C)CCNC(=O)C1CCC2(CC1)N(C)C(=O)c1c(O)c(=O)c(-c3nnc(Cc4ccc(F)cc4F)s3)cn1N2C` (centres unmarked) [Compound 126]: the IC50 under setting [4] stood at 24.3 nM and the IC50 under setting [5] was 82.2 nM.

In the case of `CN(C(=O)C1CCC2(CC1)N(C)C(=O)c1c(O)c(=O)c(-c3nnc(Cc4ccc(F)cc4F)s3)cn1N2C)C1CC1` (centres unmarked) [Compound 110], the IC50 reads like this: under setting [4], 5.82 nM; under setting [5], 10.7 nM.

For the compound `CCN1C(=O)c2c(O)c(=O)c(-c3nnc(Cc4ccc(F)cc4)s3)cn2N(C)C12CCC(CC(=O)N(C)C)C2` (centres unmarked) [Compound 99], the IC50 was 34.9 nM under setting [1] and 122 nM under setting [2].

As for `CCN1C(=O)c2c(O)c(=O)c(-c3nnc(Cc4ccc(F)cc4)s3)cn2N(C)C1C1CC1` (racemic) [Compound 217], the IC50 by setting is: under setting [1], 66 nM; under setting [2], 1020 nM.

In the case of `CN1C(=O)c2c(O)c(=O)c(-c3nnc(Cc4ccc(F)cc4F)s3)cn2N(C)C12CC[C@@H](C(=O)NC1CC1)C(C)(C)C2` (some centres unmarked) [Compound 143], the IC50 by setting is: under setting [4], 7.48 nM; under setting [6], 817 nM.

In the case of `CN1C(=O)c2c(O)c(=O)c(C(=O)NCc3ccc(F)cc3F)cn2N(C)[C@]12CC[C@@H]1C[C@@H]12` [Compound 186], the IC50 under setting [3] was found to be 1.74 nM and the IC50 under setting [2] stood at 283 nM.

Take `CN1C(=O)c2c(O)c(=O)c(-c3nnc(Cc4ccc(F)cc4F)s3)cn2N(C)C12CC[C@@H]1C[C@@]12CO` (mixture of isomers) [Compound 200]: the IC50 runs as follows: under setting [4], 2.04 nM; under setting [6], 66.7 nM.

Consider `COCCNC(=O)C1CCC2(CC1)N(C)C(=O)c1c(O)c(=O)c(-c3nnc(Cc4ccc(F)cc4F)s3)cn1N2C` (centres unmarked) [Compound 121], for which the IC50 under setting [4] came to 102 nM and the IC50 under setting [5] came to 240 nM.

On to `CN1C(=O)c2c(O)c(=O)c(-c3nnc(Cc4ccc(F)cc4F)s3)cn2N(C)C12CCC(O)C2` (centres unmarked) [Compound 79], for which the IC50 runs as follows: under setting [3], 3.11 nM; under setting [1], 40.9 nM.

Consider `COC(=O)[C@]12C[C@H]1CCC21N(C)C(=O)c2c(O)c(=O)c(-c3nnc(C(C)c4ccc(F)cc4F)s3)cn2N1C` (some centres unmarked) [Compound 206], for which the IC50 by setting is: under setting [3], 15.4 nM; under setting [1], 62.4 nM.

As to `CC1=CCC2(CC1)N(C)C(=O)c1c(O)c(=O)c(-c3nnc(Cc4ccc(F)cc4F)s3)cn1N2C` (racemic) [Compound 71], the IC50 by setting is: under setting [3], 16.1 nM; under setting [1], 49.5 nM.

Consider `CN1C(=O)c2c(O)c(=O)c(-c3nnc(Cc4ccc(F)cc4F)s3)cn2N(C)C12CCC(C)(O)CC2` (centres unmarked) [Compound 69], for which the IC50 under setting [4] came to 22.6 nM and the IC50 under setting [5] came to 84.7 nM.

As for `CCN1C(=O)c2c(O)c(=O)c(-c3nnc(Cc4ccc(F)cc4F)s3)cn2N(C)C12CCC(O)CC2` (centres unmarked) [Compound 52], the IC50 is, setting by setting: under setting [4], 2.33 nM; under setting [6], 130 nM.

`CN1C(=O)c2c(O)c(=O)c(-c3nnc(Cc4ccc(F)cc4)s3)cn2N(C)C12CCC(O)CC2` (centres unmarked) [Compound 13]: the IC50 is, setting by setting: under setting [4], 23.8 nM; under setting [5], 86.9 nM; under setting [6], 862 nM.

Regarding `CN1C(=O)c2c(O)c(=O)c(-c3nnc(Cc4ccc(F)cc4F)s3)cn2N(C)C12CCC(C(=O)N1CCC(F)(F)C1)CC2` (centres unmarked) [Compound 118], the IC50 amounted to 14.4 nM under setting [4] and 8.43 nM under setting [5].

For `C[C@@H]1CC2(CC[C@@H]1C(=O)N(C)C)N(C)C(=O)c1c(O)c(=O)c(-c3nnc(Cc4ccc(F)cc4)s3)cn1N2C` (some centres unmarked) [Compound 150], the IC50 was found to be 13.3 nM under setting [3], 18.9 nM under setting [1] and 221 nM under setting [2].

In the case of `COc1cc(CNC(=O)C2CCC3(CC2)N(C)C(=O)c2c(O)c(=O)c(-c4nnc(Cc5ccc(F)cc5F)s4)cn2N3C)on1` (centres unmarked) [Compound 136], the IC50 was 30.8 nM under setting [4] and 151 nM under setting [5].

Take `CN1C2C(O)CCCN2C(=O)c2c(O)c(=O)c(-c3nnc(Cc4ccc(F)cc4F)s3)cn21` (centres unmarked) [Compound 164]: the IC50 reads like this: under setting [4], 3.48 nM; under setting [6], 82.2 nM.

On to `CN1C2COCCN2C(=O)c2c(O)c(=O)c(-c3nnc(Cc4ccc(F)cc4)s3)cn21` (centres unmarked) [Compound 162], for which the IC50 came to 10.8 nM under setting [5] and 186 nM under setting [6].

Take `CN1C(=O)c2c(O)c(=O)c(-c3nnc(Cc4ccc(F)cc4F)s3)cn2N(C)C12CCC(C(=O)NCC1CCOC1)CC2` (centres unmarked) [Compound 130]: the IC50 under setting [4] is 13.7 nM and the IC50 under setting [5] was 33.9 nM.

Take `CN1C(=O)c2c(O)c(=O)c(-c3nnc(Cc4ccc(F)cc4F)s3)cn2N(C)C12CCC(C(=O)NCC1CCS(=O)(=O)C1)CC2` (centres unmarked) [Compound 137]: the IC50 runs as follows: under setting [1], 707 nM; under setting [4], 108 nM.

Turning to `CCOP(=O)(OCC)C1CCC2(C1)N(CC)C(=O)c1c(O)c(=O)c(-c3nnc(Cc4ccc(F)cc4F)s3)cn1N2C` (centres unmarked) [Compound 37], the IC50 runs as follows: under setting [2], 186 nM; under setting [5], 18.2 nM.

As to `CN1C2COCCN2C(=O)c2c(O)c(=O)c(-c3nnc(Cc4ccc(F)cc4F)s3)cn21` (racemic) [Compound 160], the IC50 amounted to 22.6 nM under setting [1] and 298 nM under setting [2].

Turning to `CN1C(=O)c2c(O)c(=O)c(-c3nnc(Cc4ccc(F)cc4F)s3)cn2N(C)C12CCCCCC2` [Compound 76], the IC50 is, setting by setting: under setting [3], 17.3 nM; under setting [1], 23.6 nM; under setting [2], 761 nM.

With `C[C@H]1CC2(CC[C@@H]1C(=O)N(C)C)N(C)C(=O)c1c(O)c(=O)c(-c3nnc(Cc4ccc(F)cc4)s3)cn1N2C` (some centres unmarked) [Compound 149], the IC50 under setting [1] stood at 43.7 nM.

In the case of `CCN1C(=O)c2c(O)c(=O)c(-c3nnc(Cc4ccc(F)cc4F)s3)cn2N(C)C12CCC(NS(C)(=O)=O)CC2` (centres unmarked) [Compound 24], the IC50 under setting [1] was 185 nM and the IC50 under setting [2] amounted to 1040 nM.

In the case of `CN1C(=O)c2c(O)c(=O)c(-c3nnc(Cc4ccc(F)cc4F)s3)cn2N(C)C12CCC(C)(C(=O)O)CC2` (centres unmarked) [Compound 84], the IC50 came out at 51.5 nM under setting [4] and 209 nM under setting [5].

For `CN1C(=O)c2c(O)c(=O)c(C(=O)NCc3ccc(F)cc3F)cn2N(C)[C@@]12CC[C@@H]1C[C@@H]12` [Compound 187], the IC50 under setting [3] came out at 3.64 nM and the IC50 under setting [2] was found to be 502 nM.

Take `CCOC1CCC2(CC1)Cn1cc(C(=O)NCc3ccc(F)cc3F)c(=O)c(O)c1C(=O)N2CC` (centres unmarked) [Compound 182]: the IC50 runs as follows: under setting [3], 4.02 nM; under setting [2], 45.5 nM.

On to `CCN1C(=O)c2c(O)c(=O)c(-c3nnc(Cc4ccc(F)cc4)s3)cn2N(C)C12CCCCC2` [Compound 222], for which the IC50 under setting [3] was determined as 1.28 nM.

Regarding `COCCN1C(=O)c2c(O)c(=O)c(C(=O)NCc3ccc(F)cc3F)cn2CC12CC2` [Compound 180], the IC50 stood at 1.8 nM under setting [3] and 611 nM under setting [2].

Turning to `CN1C(=O)c2c(O)c(=O)c(-c3nnc(Cc4ccc(F)cc4F)s3)cn2N(C)C12CCC(C(=O)N1CCC(F)(F)C1)CC2` (centres unmarked) [Compound 117], the IC50 was determined as 20.4 nM under setting [3] and 42.7 nM under setting [5].

On to `CN(CCNC(=O)C1CCC2(CC1)N(C)C(=O)c1c(O)c(=O)c(-c3nnc(Cc4ccc(F)cc4F)s3)cn1N2C)C(=O)OC(C)(C)C` (centres unmarked) [Compound 139], for which the IC50 under setting [3] amounted to 54.3 nM and the IC50 under setting [5] worked out at 186 nM.

`CCN1C(=O)c2c(O)c(=O)c(-c3nnc(Cc4ccc(F)cc4F)s3)cn2N(C)C12CCC(OCCOC)CC2` (centres unmarked) [Compound 65]: the IC50 is 6.27 nM under setting [4] and 123 nM under setting [6].

For `CN1C(=O)c2c(O)c(=O)c(-c3nnc(Cc4ccc(F)cc4F)s3)cn2N(C)C12CCC(C(=O)NCc1cnoc1)CC2` (centres unmarked) [Compound 127], the IC50 reads like this: under setting [3], 112 nM; under setting [5], 376 nM.

With `CCN1C(=O)c2c(O)c(=O)c(-c3nnc(Cc4ccc(F)cc4)s3)cn2N(C)C12CCC(C(=O)NC1CC1)CC2` (centres unmarked) [Compound 96], the IC50 came out at 8.63 nM under setting [3], 16.2 nM under setting [1] and 171 nM under setting [2].

For `CCN1C(=O)c2c(O)c(=O)c(-c3nnc(Cc4ccc(F)cc4F)s3)cn2N(C)C12CCC1(CCC(=O)N1)CC2` (centres unmarked) [Compound 23], under setting [5], the IC50 was determined as 466 nM.
